What was measured:
Format in all cases: biochemical
HCV NS3/4A = HCV NS3/4A (Hepatitis C virus genotype 1a, UniProt P27958)
SARS-CoV 3CLpro = SARS-CoV 3CLpro (Severe acute respiratory syndrome coronavirus, UniProt P0C6X7)
SARS-CoV PLpro = SARS-CoV PLpro (Severe acute respiratory syndrome coronavirus, UniProt P0C6X7)

HCV NS3/4A, sequence (P27958 1027-1657): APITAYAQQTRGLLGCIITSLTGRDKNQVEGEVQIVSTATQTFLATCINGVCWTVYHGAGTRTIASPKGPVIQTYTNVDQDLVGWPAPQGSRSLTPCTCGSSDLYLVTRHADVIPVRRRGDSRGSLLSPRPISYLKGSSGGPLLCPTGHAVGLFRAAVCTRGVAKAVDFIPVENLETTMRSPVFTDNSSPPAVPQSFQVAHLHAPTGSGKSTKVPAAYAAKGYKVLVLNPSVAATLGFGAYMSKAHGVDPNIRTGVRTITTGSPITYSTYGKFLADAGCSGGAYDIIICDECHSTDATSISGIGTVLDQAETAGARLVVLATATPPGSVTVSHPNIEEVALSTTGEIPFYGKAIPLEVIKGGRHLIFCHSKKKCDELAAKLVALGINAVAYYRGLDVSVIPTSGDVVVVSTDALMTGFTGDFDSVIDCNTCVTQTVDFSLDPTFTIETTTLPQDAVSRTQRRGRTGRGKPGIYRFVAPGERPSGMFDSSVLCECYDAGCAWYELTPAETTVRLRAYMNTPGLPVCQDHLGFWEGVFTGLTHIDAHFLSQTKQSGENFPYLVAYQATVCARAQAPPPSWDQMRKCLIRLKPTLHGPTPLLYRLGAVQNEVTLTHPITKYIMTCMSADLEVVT
HCV NS3/4A, sequence (P27958 1658-1711 partner limits assumed): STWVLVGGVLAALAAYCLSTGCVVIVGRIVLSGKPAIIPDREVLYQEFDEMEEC

Structure (SMILES) | Vmax (HCV NS3/4A) [RFU/10 min] | change of enzyme efficiency (Kcat/KM) (HCV NS3/4A) [fold] | Vmax (SARS-CoV 3CLpro) [RFU/10 min] | Vmax (SARS-CoV PLpro) [RFU/10 min] | increase of KM (SARS-CoV PLpro) [fold] | Kcat/KM ratio (HCV NS3/4A) | Kcat/KM ratio (SARS-CoV 3CLpro) | Km (SARS-CoV 3CLpro) [µM] | Kcat/KM ratio (SARS-CoV PLpro) | Km (HCV NS3/4A) [µM] | Km (SARS-CoV PLpro) [µM]
O[C@@H](CS)[C@@H](O)CS (racemic) [DTT, dithiothreitol] | 181 ± 21 | 1.6 | 435 ± 12 | 813 ± 36 | 4 |  |  |  |  |  | 
N[C@@H](CCC(=O)N[C@@H](CS)C(=O)NCC(=O)O)C(=O)O [GSH, reduced glutathione] | 151 ± 8 |  | 516 ± 9 | 449 ± 14 | 1.5 | 1.5 | 1.2 | 16.1 ± 0.8 | 1.0 |  | 
O=C(O)CCP(CCC(=O)O)CCC(=O)O [TCEP, tris(2-carboxyethyl)phosphine] | 75 ± 15 |  | 472 ± 18 | 441 ± 41 | 2.5 | 0.5 |  |  |  |  | 
OCCS [β-MCE, β-mercaptoethanol] | 161 ± 8 |  | 453 ± 24 | 438 ± 30 |  | 1.4 | 1.2 | 14.8 ± 1.2 | 1.2 | 2.5 ± 0.1 | 117 ± 7
